Measurements as given in US20070203109A1, “Compounds And Compositions For Treatment Of Cancer” (priority 2004, published 2007).
“Also recorded” adds a separate entry of the source. Where two headings read alike, the source gives them in different places.

Key:
DT-Diaphorase (DTD) = DT-Diaphorase (DTD) (Homo sapiens, UniProt P15559); assay: Suitability as substrate for DTD (activation by DTD); type: biochemical
Description: The results of these tests are set out in Table 2.

skin biopsy lesions = assay: Comet-X assay on skin biopsy lesions; type: in vivo, human; settings: highest cohort treated
solid tumours = assay: Phase I clinical trial: safety, tolerability and anti-tumour response; type: in vivo, human
Description: The RH1 trial involved administering RH1 to patients having histologically proven solid tumours that were refractory to conventional treatment or for whom no conventional treatment exists. The WHO performance status of these patients was 0 or 1. WHO performance status is an indicator of a patients overall level of well being/activity. A WHO performance status of 0 means that the patient is fully active, able to carry out all normal activity, without restriction. A WHO performance status of 1 means the patient is restricted in physically strenuous activity but ambulatory and able to carry out work of a light or sedentary nature, e.g. light house work, office work.
(§1) RH1 was administered intravenously on a daily schedule for 5 day periods following a dose escalation scheme. Treatment was repeated on a 21 day cycle. A dose escalation scheme was used to try to establish dose-limiting toxicity. Predicted toxicity includes myelosuppression, emesis, renal toxicity and local injection site irritation. Safety and tolerability were monitored each cycle. Anti-tumour response was assessed after each 2 cycles using RECIST criteria.

[1] = test system: DNA of human lymphocytes (PBLs); assay: RH1 drug dosimetry in human lymphocytes in vitro (Comet-X assay); type: cell-based
Description: Optimal DNA cross-linking is shown in the range 50 to 100 nM RH1.
The Comet assay is a sensitive method of detecting DNA breaks in single cells. The cells are embedded in agarose and spread onto microscope slides. After lysis and de-proteinisation, the cells are subjected to alkaline unwinding at high pH (12.5). The DNA becomes relaxed and unwinds at points where DNA single and double strand breaks occur. The cells are then finally subjected to micro-electrophoresis during which relaxed and damaged DNA migrates away from the nucleus resulting in the classic comet shape when visualised under microscopy. This migration of DNA is retarded when the DNA has been subjected to interstrand cross-linking by drugs such as RH1. In the comet-X assay used in this trial, control non-drug treated lymphocytes from the patient's pre-infusion are subjected to gamma radiation to introduce a fixed number of DNA breaks into each cell. This treatment results in a fixed amount of migration under electrophoresis quantified as the percentage (%) of DNA in the tail of the comet image. Patients lymphocytes exposed to RH1 on infusion are collected and irradiated with the same dose of gamma radiation as the control pre-infusion lymphocytes. […] Results are expressed as % DNA cross linked. […]

physchem [2] = settings: 25 °C, aqueous buffer
clinical = assay: clinical; design: species or system human; settings: in vivo; for half-life: iv
Description: RH-1 is activated by NAD(P)H: Quinone acceptor oxidoreductase (NQO1; DT-diaphorase, DTD). DTD is often over-expressed in lung, colon, liver and breast tumours. RH-1 is undergoing Phase I trial at the Christie Hospital, UK. The pharmacokinetic (PK) requirements of this trial required assays that detect nM levels of RH-1 in serum using LC-MS. The extraction and quantitation of RH-1 from human plasma was validated and a limit of detection of 1 ng/ml reached.
as §1
Patients lymphocytes exposed to RH1 on infusion were analysed using the comet-X assay, which detects DNA interstrand cross-links.

[3] = test system: DNA of peripheral blood lymphocytes; assay: Comet-X assay of patients' peripheral blood lymphocytes in the Phase I trial; type: in vivo, human
Description: A modified version of the single cell gel electrophoresis comet assay, the Comet-X, specifically detects DNA cross-linking in individual cells and has been validated for clinical trial use. 9 patients have been treated with RH-1 and PMBCs (peripheral blood lymphocytes) isolated from pre-infusion and post infusion time points on both day 1 and day 5 of treatment were subjected to Comet-X assay (FIG. 2). From the data obtained, accumulative DNA damage appears to be occurring in PBMC's over the 5 day infusion period leading to significant DNA cross linking (30%) by day 5 (FIG. 3). Other PD (pharmacodynamic) assays used in the trial include assessment of DTD levels and activity and RFLP genotyping of the NQO1 gene.
The Comet assay is a sensitive method of detecting DNA breaks in single cells. The cells are embedded in agarose and spread onto microscope slides. After lysis and de-proteinisation, the cells are subjected to alkaline unwinding at high pH (12.5). The DNA becomes relaxed and unwinds at points where DNA single and double strand breaks occur. The cells are then finally subjected to micro-electrophoresis during which relaxed and damaged DNA migrates away from the nucleus resulting in the classic comet shape when visualised under microscopy. This migration of DNA is retarded when the DNA has been subjected to interstrand cross-linking by drugs such as RH1. In the comet-X assay used in this trial, control non-drug treated lymphocytes from the patient's pre-infusion are subjected to gamma radiation to introduce a fixed number of DNA breaks into each cell. This treatment results in a fixed amount of migration under electrophoresis quantified as the percentage (%) of DNA in the tail of the comet image. Patients lymphocytes exposed to RH1 on infusion are collected and irradiated with the same dose of gamma radiation as the control pre-infusion lymphocytes. It was expected that interstrand cross-links produced by RH1 will retard the migration of DNA during electrophoresis resulting in less DNA in the tail of the comet compared to the irradiation only controls. Results are expressed as % DNA cross linked.
To date 12 patients have been treated with RH1 and peripheral blood lymphocytes isolated from pre-infusion and post infusion time points on both day 1 and day 5 of treatment. These lymphocytes have been subjected to the Comet-X assay described above and the amount of DNA present in the tail of the comets following irradiation has been measured. Internal QC samples have been run each time a patients samples have been processed. The data has been pooled into exposure times (short 5-10 minutes, medium 40-120 minutes and long 4-24 hrs exposure) and dose cohorts, (1) 40-135 μg/m^2, (2) 200-326 μg/m^2, (3) 410-810 μg/m^2, and (4) […] ranges for ease of analysis.

physchem [4] = settings: buffer, pH 7

DT-Diaphorase (DTD), sequence (P15559 whole entry): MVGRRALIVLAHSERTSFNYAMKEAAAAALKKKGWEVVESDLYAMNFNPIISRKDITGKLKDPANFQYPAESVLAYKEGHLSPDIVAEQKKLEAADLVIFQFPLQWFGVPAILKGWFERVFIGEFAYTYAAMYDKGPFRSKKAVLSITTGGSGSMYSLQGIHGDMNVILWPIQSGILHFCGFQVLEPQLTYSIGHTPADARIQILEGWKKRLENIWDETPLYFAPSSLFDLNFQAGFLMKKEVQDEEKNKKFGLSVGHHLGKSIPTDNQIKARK

Question: With `CCOC(=O)NC1=C(N2CC2)C(=O)C(NC(=O)OCC)=C(N2CC2)C1=O` [AZQ, 3,6-diaziridinyl-2,5-bis-(carboethoxyamino)1,4-benzoquinone] as the compound, how does the DTD substrate (DT-Diaphorase (DTD)) read?
Answer: Moderate

Question: With `O=C1C(NCCO)=C(N2CC2)C(=O)C(NCCO)=C1N1CC1` [BZQ, 3,6-diaziridinyl-2,5-bis-2(-hydroxyethylamino)1,4-benzoquinone] as the compound, how does the DTD substrate (DT-Diaphorase (DTD)) read?
Answer: Poor

Question: Which DTD substrate (DT-Diaphorase (DTD)) does the source give for `Cn1c(/C=C/CO)c(CO)c2c1C(=O)C=C(N1CC1)C2=O` [E09, 3-HYDROXYMETHYL-5-AZIRIDINYL-1METHYL-2-[1H-INDOLE-4,7-DIONE]-PROPANOL] here?
Answer: Moderate

Question: What does the source list for `CO[C@@]12[C@H](COC(N)=O)C3=C(C(=O)C(C)=C(N)C3=O)N1C[C@@H]1N[C@@H]12` [Mitomycin C]?
Answer: DTD substrate (DT-Diaphorase (DTD)): Poor; DTD substrate (DT-Diaphorase (DTD); listed as mitomycin C): relatively poor substrate

Question: Which results are given for `CC1=C(N2CC2)C(=O)C(CO)=C(N2CC2)C1=O` [RH1, 2,5-diaziridinyl-3-hydroxymethyl-6-methyl-1,4-benzoquinone]?
Answer: Comet-X result on skin biopsy lesions (skin biopsy lesions): demonstrate efficacy; toxicity, patient 5 (solid tumours; patient 005, 265 μg/m^2/d): grade I thrombocytopenia; also recorded: grade I renal impairment; toxicity, patient 007 (solid tumours; patient 007, dose level 7): evidence of toxicity; treatment-related toxicity, first 4 patients (solid tumours; patients 001-004, 40-200 μg/m^2/d i.v. daily x5): no treatment-related toxicity; dose response of DNA cross-linking ([1]; PBLs treated 5-100 nM RH1, 2 hours, 37° C., concentration increased to 50 nM): increase in DNA cross-linking; RH1 concentration range of optimal DNA cross-linking ([1]; human lymphocytes, Comet-X, FIG. 1): 50 to 100 nM; solubility (physchem [2]): > 500 µg/mL; Clearance saturability (clinical; human): did not appear to be saturable; half-life (clinical; human, half-life (clearance from the blood)): ~6 min; half-life (clinical; human, plasma half-life): 2 to 12 min; relationship between drug dose and area under the curve (clinical): linear relationship; DTD substrate (DT-Diaphorase (DTD)): excellent substrate; DTD substrate (DT-Diaphorase (DTD); listed as RH-1): good substrate; cross-linking on day 5 compared with day 1 ([3]; all patients, statistical analysis): significantly more cross-linking; DNA cross linking in PBMCs ([3]; by day 5 of the 5 day infusion period): 30%; % DNA in the tail (distribution peak) ([3]; day 1, similar to irradiated control): 70-80%; % DNA in the tail (distribution peak) ([3]; day 5, PBLC population): 60-70%; degree of cross-linking in PBMCs, highest cohort ([3]; highest cohort (1080-1095 mg/m^2), day 5): 15-20%; DNA cross-linking, medium dose cohort ([3]; medium dose cohort, day 1 (particularly 4 hr, 24 hr samples) and throughout day 5): evidence of DNA cross-linking; DNA cross-linking, low dose cohort ([3]; pooled data, low dose cohort, day 1 or day 5): no DNA cross-linking; half-life (physchem [4]): > 2880 min
